Inconclusive results and toxic doses are left out. How the source made its calls: active means survival T/C of 150% or more; inactive means T/C below 125% in these data.
System: BDF1 mice, L1210/MTX-resistant leukemia ip, survival T/C
Assay: NCI In Vivo Anticancer Drug Screen. Data for tumor model L1210 Leukemia resistant to Methotrexate; NSC 740 (intraperitoneal) in B6D2F1 (BDF1) mice
Details: endpoint: mean survival time, higher = longer survival
Method: The antitumor activity of compounds was measured in mice bearing transplantable tumors. Survival or tumor size were measured and the results are expressed as the measurement made in the treated group (T) divided by the measurement made in the vehicle treated control group (C). The tumor model used in this assay is L1210 Leukemia resistant to Methotrexate; NSC 740 (intraperitoneal) in B6D2F1 (BDF1) mice

Measured: T/C

N=C(N)c1ccc(Nc2ccc(C(=N)N)cc2)cc1
inactive: dose: 1.5 mg/kg/injection, schedule: Q01DX010 (ip), vehicle: saline 101 % of control | dose: 3.0 mg/kg/injection, schedule: Q01DX010 (ip), vehicle: saline 97 % of control | dose: 6.0 mg/kg/injection, schedule: Q01DX010 (ip), vehicle: saline 102 % of control | dose: 7.5 mg/kg/injection, schedule: Q01DX Z (ip), vehicle: water 98 % of control | dose: 12.0 mg/kg/injection, schedule: Q01DX010 (ip), vehicle: saline 91 % of control | dose: 12.5 mg/kg/injection, schedule: Q01DX Z (ip), vehicle: water 86 % of control

C=CC(CN1CC1)OC(C)=O (stereo not given)
inactive: dose: 1.25 mg/kg/injection, schedule: Q01DX Z (ip), vehicle: saline 119 % of control | dose: 2.0 mg/kg/injection, schedule: Q01DX010 (ip), vehicle: saline 123 % of control | dose: 2.5 mg/kg/injection, schedule: Q01DX Z (ip), vehicle: saline 107 % of control | dose: 5.0 mg/kg/injection, schedule: Q01DX Z (ip), vehicle: saline 102 % of control

Source: PubChem BioAssay AID284 (DTP/NCI, 2004)
